From PubChem BioAssay (NCI)
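Five concentrations, 48 hours, 96-well plates. Abbreviation: GI50, concentration required for 50% inhibition of growth. TGI: concentration producing complete growth inhibition.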

Experiments:
Assay in all cases: NCI tumour cell line growth inhibition, 48 h; in the data active = GI50 below about 0.43 µM; inactive = the rest
786-0 renal = tested on: 786-0 renal
A498 renal = tested on: A498 renal
A549 NSCLC = tested on: A549 NSCLC
ACHN renal = tested on: ACHN renal
BT-549 breast = tested on: BT-549 breast
CAKI-1 renal = tested on: CAKI-1 renal
CCRF-CEM leukemia = tested on: CCRF-CEM leukemia
COLO 205 colon = tested on: COLO 205 colon
DU-145 prostate = tested on: DU-145 prostate
EKVX NSCLC = tested on: EKVX NSCLC
HCC-2998 colon = tested on: HCC-2998 colon
HCT-116 colon = tested on: HCT-116 colon
HCT-15 colon = tested on: HCT-15 colon
HL-60(TB) leukemia = tested on: HL-60(TB) leukemia
HOP-62 NSCLC = tested on: HOP-62 NSCLC
HOP-92 NSCLC = tested on: HOP-92 NSCLC
HS 578T breast = tested on: HS 578T breast
HT29 colon = tested on: HT29 colon
IGROV1 ovarian = tested on: IGROV1 ovarian
K-562 leukemia = tested on: K-562 leukemia
KM12 colon = tested on: KM12 colon
LOX IMVI melanoma = tested on: LOX IMVI melanoma
M14 melanoma = tested on: M14 melanoma
MALME-3M melanoma = tested on: MALME-3M melanoma
MCF7 breast = tested on: MCF7 breast
MDA-MB-231 breast = tested on: MDA-MB-231 breast
MDA-MB-435 = tested on: MDA-MB-435
MOLT-4 leukemia = tested on: MOLT-4 leukemia
NCI-H226 lung = tested on: NCI-H226 lung
NCI-H23 lung = tested on: NCI-H23 lung
NCI-H460 lung = tested on: NCI-H460 lung
NCI-H522 lung = tested on: NCI-H522 lung
NCI/ADR-RES ovarian = tested on: NCI/ADR-RES ovarian
OVCAR-3 ovarian = tested on: OVCAR-3 ovarian
OVCAR-4 ovarian = tested on: OVCAR-4 ovarian
OVCAR-5 ovarian = tested on: OVCAR-5 ovarian
OVCAR-8 ovarian = tested on: OVCAR-8 ovarian
PC-3 prostate = tested on: PC-3 prostate
RPMI-8226 leukemia = tested on: RPMI-8226 leukemia
RXF 393 renal = tested on: RXF 393 renal
SF-268 CNS = tested on: SF-268 CNS
SF-295 CNS = tested on: SF-295 CNS
SF-539 CNS = tested on: SF-539 CNS
SK-MEL-2 melanoma = tested on: SK-MEL-2 melanoma
SK-MEL-28 melanoma = tested on: SK-MEL-28 melanoma
SK-MEL-5 melanoma = tested on: SK-MEL-5 melanoma
SK-OV-3 ovarian = tested on: SK-OV-3 ovarian
SN12C renal = tested on: SN12C renal
SNB-19 CNS = tested on: SNB-19 CNS
SNB-75 CNS = tested on: SNB-75 CNS
SR leukemia = tested on: SR leukemia
SW-620 colon = tested on: SW-620 colon
T-47D breast = tested on: T-47D breast
TK-10 renal = tested on: TK-10 renal
U251 CNS = tested on: U251 CNS
UACC-257 melanoma = tested on: UACC-257 melanoma
UACC-62 melanoma = tested on: UACC-62 melanoma
UO-31 renal = tested on: UO-31 renal

Fc1ccc(-c2nnc3sc(-c4cc(Cl)cc(Cl)c4)nn23)cc1Cl
43.6 µM: TGI (U251 CNS)
30.1 µM: TGI (SNB-75 CNS)
46.3 µM: TGI (SK-OV-3 ovarian)
43.8 µM: TGI (SR leukemia)
> 100 µM: TGI (786-0 renal) | TGI (BT-549 breast) | TGI (COLO 205 colon) | TGI (DU-145 prostate) | TGI (EKVX NSCLC) | TGI (HCC-2998 colon) | TGI (HCT-15 colon) | TGI (HL-60(TB) leukemia) | TGI (HS 578T breast) | TGI (IGROV1 ovarian) | TGI (K-562 leukemia) | TGI (KM12 colon) | TGI (LOX IMVI melanoma) | TGI (M14 melanoma) | TGI (MALME-3M melanoma) | TGI (MCF7 breast) | TGI (MDA-MB-435) | TGI (MOLT-4 leukemia) | TGI (NCI-H226 lung) | TGI (NCI-H23 lung) | TGI (NCI-H460 lung) | TGI (NCI-H522 lung) | TGI (NCI/ADR-RES ovarian) | TGI (OVCAR-3 ovarian) | TGI (OVCAR-5 ovarian) | TGI (OVCAR-8 ovarian) | TGI (PC-3 prostate) | TGI (RPMI-8226 leukemia) | TGI (SF-268 CNS) | TGI (SF-295 CNS) | TGI (SF-539 CNS) | TGI (SK-MEL-2 melanoma) | TGI (SK-MEL-28 melanoma) | TGI (SK-MEL-5 melanoma) | TGI (SN12C renal) | TGI (SNB-19 CNS) | TGI (SW-620 colon) | TGI (T-47D breast) | TGI (UACC-257 melanoma) | TGI (UACC-62 melanoma) | TGI (UO-31 renal)
77.9 µM: TGI (A498 renal)
61.8 µM: TGI (A549 NSCLC)
45.6 µM: TGI (ACHN renal)
inactive: GI50 (786-0 renal) 29.7 µM | GI50 (A498 renal) 29 µM | GI50 (A549 NSCLC) 24.4 µM | GI50 (ACHN renal) 21 µM | GI50 (BT-549 breast) 87.1 µM | GI50 (CAKI-1 renal) 33.5 µM | GI50 (CCRF-CEM leukemia) 29 µM | GI50 (COLO 205 colon) 56.6 µM | GI50 (DU-145 prostate) > 100 µM | GI50 (EKVX NSCLC) > 100 µM | GI50 (HCC-2998 colon) > 100 µM | GI50 (HCT-116 colon) 18.5 µM | GI50 (HCT-15 colon) 72.5 µM | GI50 (HL-60(TB) leukemia) 99.1 µM | GI50 (HOP-62 NSCLC) 20.3 µM | GI50 (HOP-92 NSCLC) 20.5 µM | GI50 (HS 578T breast) 45.2 µM | GI50 (HT29 colon) 28.1 µM | GI50 (IGROV1 ovarian) > 100 µM | GI50 (K-562 leukemia) > 100 µM | GI50 (KM12 colon) > 100 µM | GI50 (LOX IMVI melanoma) 32.8 µM | GI50 (M14 melanoma) 41.3 µM | GI50 (MALME-3M melanoma) 37.7 µM | GI50 (MCF7 breast) 30.5 µM | GI50 (MDA-MB-231 breast) 17.2 µM | GI50 (MDA-MB-435) > 100 µM | GI50 (MOLT-4 leukemia) 72.9 µM | GI50 (NCI-H226 lung) 34.3 µM | GI50 (NCI-H23 lung) 37.2 µM | GI50 (NCI-H460 lung) 39.3 µM | GI50 (NCI-H522 lung) 49.7 µM | GI50 (NCI/ADR-RES ovarian) 34.9 µM | GI50 (OVCAR-3 ovarian) > 100 µM | GI50 (OVCAR-4 ovarian) 17.4 µM | GI50 (OVCAR-5 ovarian) 70.1 µM | GI50 (OVCAR-8 ovarian) 46.6 µM | GI50 (PC-3 prostate) 61.3 µM | GI50 (RPMI-8226 leukemia) 46.8 µM | GI50 (RXF 393 renal) 1.51 µM | GI50 (SF-268 CNS) 53 µM | GI50 (SF-295 CNS) 74.2 µM | GI50 (SF-539 CNS) > 100 µM | GI50 (SK-MEL-2 melanoma) > 100 µM | GI50 (SK-MEL-28 melanoma) > 100 µM | GI50 (SK-MEL-5 melanoma) > 100 µM | GI50 (SK-OV-3 ovarian) 24.6 µM | GI50 (SN12C renal) 34.2 µM | GI50 (SNB-19 CNS) 32.3 µM | GI50 (SNB-75 CNS) 13 µM | GI50 (SR leukemia) 13.3 µM | GI50 (SW-620 colon) 45 µM | GI50 (T-47D breast) > 100 µM | GI50 (TK-10 renal) 20.5 µM | GI50 (U251 CNS) 17.3 µM | GI50 (UACC-257 melanoma) 38.2 µM | GI50 (UACC-62 melanoma) 31.1 µM | GI50 (UO-31 renal) 39.6 µM
86.8 µM: TGI (CCRF-CEM leukemia)
83.3 µM: TGI (HT29 colon)
39.4 µM: TGI (MDA-MB-231 breast)
96.4 µM: TGI (CAKI-1 renal)
53.4 µM: TGI (OVCAR-4 ovarian)
44 µM: TGI (TK-10 renal)
52.4 µM: TGI (HOP-92 NSCLC)
26.4 µM: TGI (RXF 393 renal)
42 µM: TGI (HOP-62 NSCLC)
44.2 µM: TGI (HCT-116 colon)
